Assays:
Histone deacetylase 2 = Histone deacetylase 2 (Homo sapiens, UniProt Q92769); assay: Inhibition of HDAC2 (unknown origin) using fluorogenic tetrapeptide RHKK(Ac) substrate by fluorescence assay
Histone deacetylase 3 = Histone deacetylase 3 (Homo sapiens, UniProt O15379); assay: Inhibition of HDAC3 (unknown origin) using fluorogenic tetrapeptide RHKK(Ac) substrate by fluorescence assay
Histone deacetylase 1 = Histone deacetylase 1 (Homo sapiens, UniProt Q13547); assay: Inhibition of HDAC1 (unknown origin) using fluorogenic tetrapeptide RHKK(Ac) substrate by fluorescence assay
[1] = biological target: T1, Polyamine deacetylase HDAC10 (Homo sapiens, UniProt Q969S8); assay: Inhibition of HDAC10 (unknown origin) using fluorogenic tetrapeptide RHKK(Ac) substrate by fluorescence assay
T1 sequence (Q969S8 whole entry): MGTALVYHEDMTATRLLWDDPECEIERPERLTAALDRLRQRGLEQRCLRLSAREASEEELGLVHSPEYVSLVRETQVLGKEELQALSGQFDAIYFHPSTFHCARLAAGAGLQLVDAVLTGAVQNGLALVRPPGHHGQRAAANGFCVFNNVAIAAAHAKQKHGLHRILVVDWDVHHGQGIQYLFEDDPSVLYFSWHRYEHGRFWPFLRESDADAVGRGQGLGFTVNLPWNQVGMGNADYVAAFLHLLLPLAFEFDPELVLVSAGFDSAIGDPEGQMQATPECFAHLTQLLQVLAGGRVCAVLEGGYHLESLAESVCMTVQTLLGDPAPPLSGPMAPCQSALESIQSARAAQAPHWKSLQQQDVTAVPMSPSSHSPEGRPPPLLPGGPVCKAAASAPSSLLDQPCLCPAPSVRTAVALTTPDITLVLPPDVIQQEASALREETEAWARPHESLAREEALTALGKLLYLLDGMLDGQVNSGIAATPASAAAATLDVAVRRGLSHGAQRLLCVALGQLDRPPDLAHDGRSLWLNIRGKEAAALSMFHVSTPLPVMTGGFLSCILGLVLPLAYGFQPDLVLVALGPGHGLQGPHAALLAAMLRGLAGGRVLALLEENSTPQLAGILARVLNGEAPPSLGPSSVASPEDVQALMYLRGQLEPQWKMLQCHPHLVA

Histone deacetylase 11 = biological target: T2, Histone deacetylase 11 (Homo sapiens, UniProt Q96DB2); assay: Inhibition of HDAC11 (unknown origin) using fluorogenic tetrapeptide RHKK(Ac) substrate by fluorescence assay
T2 sequence (Q96DB2 whole entry): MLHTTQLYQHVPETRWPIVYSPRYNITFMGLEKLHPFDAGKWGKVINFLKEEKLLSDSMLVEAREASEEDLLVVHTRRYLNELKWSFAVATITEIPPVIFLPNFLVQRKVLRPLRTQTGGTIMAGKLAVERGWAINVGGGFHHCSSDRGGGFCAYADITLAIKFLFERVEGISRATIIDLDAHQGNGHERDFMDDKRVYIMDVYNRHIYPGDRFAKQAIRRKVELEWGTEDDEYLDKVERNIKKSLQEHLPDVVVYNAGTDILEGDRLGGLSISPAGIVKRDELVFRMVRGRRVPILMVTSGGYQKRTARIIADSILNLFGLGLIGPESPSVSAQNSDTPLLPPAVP

Histone deacetylase 8 = biological target: T3, Histone deacetylase 8 (Homo sapiens, UniProt Q9BY41); assay: Inhibition of HDAC8 (unknown origin) using fluorogenic tetrapeptide RHK(Ac)K(Ac) substrate by fluorescence assay
T3 sequence (Q9BY41 whole entry): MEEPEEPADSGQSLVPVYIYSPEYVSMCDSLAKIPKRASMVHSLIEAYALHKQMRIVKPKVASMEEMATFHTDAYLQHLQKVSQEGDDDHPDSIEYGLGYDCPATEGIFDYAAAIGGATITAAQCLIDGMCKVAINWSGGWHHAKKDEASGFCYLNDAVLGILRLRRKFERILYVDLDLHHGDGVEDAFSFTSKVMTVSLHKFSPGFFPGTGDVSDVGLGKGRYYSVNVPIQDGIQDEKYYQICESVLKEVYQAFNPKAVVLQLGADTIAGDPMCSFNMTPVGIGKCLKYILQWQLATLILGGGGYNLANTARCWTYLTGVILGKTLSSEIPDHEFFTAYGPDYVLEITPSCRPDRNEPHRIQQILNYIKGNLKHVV

[2] = biological target: T4, Protein deacetylase HDAC6 (Homo sapiens, UniProt Q9UBN7); assay: Inhibition of HDAC6 (unknown origin) using fluorogenic tetrapeptide RHKK(Ac) substrate by fluorescence assay
T4 sequence (Q9UBN7 whole entry): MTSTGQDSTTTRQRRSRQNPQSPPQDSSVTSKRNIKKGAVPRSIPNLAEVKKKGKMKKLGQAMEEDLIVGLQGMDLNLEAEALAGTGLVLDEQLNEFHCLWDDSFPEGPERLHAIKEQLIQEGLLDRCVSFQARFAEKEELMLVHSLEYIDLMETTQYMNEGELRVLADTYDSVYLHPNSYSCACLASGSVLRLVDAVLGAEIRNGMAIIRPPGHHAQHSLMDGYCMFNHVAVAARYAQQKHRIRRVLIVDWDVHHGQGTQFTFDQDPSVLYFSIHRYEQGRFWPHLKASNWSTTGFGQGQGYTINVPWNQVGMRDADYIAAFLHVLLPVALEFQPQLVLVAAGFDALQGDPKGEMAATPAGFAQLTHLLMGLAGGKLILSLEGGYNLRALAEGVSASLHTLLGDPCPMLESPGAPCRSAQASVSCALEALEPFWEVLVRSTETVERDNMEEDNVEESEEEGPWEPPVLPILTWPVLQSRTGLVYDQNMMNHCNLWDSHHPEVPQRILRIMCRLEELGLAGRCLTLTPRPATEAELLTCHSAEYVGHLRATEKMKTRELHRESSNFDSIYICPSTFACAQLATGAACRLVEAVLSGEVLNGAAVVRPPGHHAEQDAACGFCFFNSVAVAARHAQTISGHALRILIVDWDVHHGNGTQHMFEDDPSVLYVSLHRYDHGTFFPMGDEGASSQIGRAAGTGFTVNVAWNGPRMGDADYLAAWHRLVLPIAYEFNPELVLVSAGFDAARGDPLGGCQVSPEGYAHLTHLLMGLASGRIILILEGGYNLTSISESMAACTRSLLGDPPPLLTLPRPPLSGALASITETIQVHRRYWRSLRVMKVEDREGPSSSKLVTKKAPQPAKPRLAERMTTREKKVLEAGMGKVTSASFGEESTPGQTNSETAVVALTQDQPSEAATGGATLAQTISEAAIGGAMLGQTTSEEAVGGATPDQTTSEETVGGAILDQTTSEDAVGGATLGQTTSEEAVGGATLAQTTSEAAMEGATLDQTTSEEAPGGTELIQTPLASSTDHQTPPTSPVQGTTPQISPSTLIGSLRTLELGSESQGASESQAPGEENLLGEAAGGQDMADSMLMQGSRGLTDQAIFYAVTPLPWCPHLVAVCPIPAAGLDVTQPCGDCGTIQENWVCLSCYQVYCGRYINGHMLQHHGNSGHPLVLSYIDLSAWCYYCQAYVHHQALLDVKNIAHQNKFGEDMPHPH

Histone deacetylase 3, sequence (O15379 whole entry): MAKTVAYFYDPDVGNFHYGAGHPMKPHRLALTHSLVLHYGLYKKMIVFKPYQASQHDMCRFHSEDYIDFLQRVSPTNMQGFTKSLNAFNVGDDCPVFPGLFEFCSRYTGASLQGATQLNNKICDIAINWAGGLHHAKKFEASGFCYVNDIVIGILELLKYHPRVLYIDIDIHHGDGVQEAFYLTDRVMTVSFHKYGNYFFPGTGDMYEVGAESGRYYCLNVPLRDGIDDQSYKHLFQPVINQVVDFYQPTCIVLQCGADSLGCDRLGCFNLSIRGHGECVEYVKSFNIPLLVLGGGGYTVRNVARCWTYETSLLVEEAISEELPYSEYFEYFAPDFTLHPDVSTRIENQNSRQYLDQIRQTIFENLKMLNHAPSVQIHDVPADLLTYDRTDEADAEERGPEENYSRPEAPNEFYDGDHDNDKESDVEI
Histone deacetylase 2, sequence (Q92769 whole entry): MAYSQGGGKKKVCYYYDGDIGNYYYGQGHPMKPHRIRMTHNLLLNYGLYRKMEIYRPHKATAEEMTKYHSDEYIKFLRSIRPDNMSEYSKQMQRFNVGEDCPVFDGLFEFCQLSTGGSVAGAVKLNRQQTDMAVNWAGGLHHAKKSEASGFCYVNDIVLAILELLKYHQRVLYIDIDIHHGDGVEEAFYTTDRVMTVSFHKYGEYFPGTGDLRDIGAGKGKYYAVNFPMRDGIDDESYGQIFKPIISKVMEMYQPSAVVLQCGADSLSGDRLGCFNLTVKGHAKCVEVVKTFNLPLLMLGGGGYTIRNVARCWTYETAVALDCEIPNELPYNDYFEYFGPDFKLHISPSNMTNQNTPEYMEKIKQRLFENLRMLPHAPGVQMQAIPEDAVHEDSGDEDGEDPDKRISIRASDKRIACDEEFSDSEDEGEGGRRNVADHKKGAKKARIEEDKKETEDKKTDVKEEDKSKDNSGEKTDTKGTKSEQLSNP
Histone deacetylase 1, sequence (Q13547 whole entry): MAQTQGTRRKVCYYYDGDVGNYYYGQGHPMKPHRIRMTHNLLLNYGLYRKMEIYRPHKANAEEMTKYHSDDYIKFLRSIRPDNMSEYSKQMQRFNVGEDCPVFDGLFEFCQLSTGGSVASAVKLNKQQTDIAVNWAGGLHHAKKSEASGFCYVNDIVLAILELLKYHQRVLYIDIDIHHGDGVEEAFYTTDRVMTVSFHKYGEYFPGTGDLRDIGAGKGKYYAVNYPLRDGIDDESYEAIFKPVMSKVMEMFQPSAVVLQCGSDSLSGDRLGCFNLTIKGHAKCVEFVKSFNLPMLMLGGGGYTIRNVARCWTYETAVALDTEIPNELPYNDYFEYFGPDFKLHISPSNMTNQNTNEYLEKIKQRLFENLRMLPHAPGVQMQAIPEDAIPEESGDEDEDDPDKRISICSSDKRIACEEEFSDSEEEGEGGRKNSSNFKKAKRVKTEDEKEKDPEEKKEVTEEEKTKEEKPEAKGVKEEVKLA

Row | SMILES | IC50 (Histone deacetylase 2) [nM] | IC50 (Histone deacetylase 3) [nM] | IC50 (Histone deacetylase 1) [nM] | IC50 [1] [nM] | IC50 (Histone deacetylase 11) [nM] | IC50 (Histone deacetylase 8) [nM] | IC50 [2] [nM]
1 | O=C1NC[C@@H](c2ccccc2)[C@H]1C(=O)N[C@@H](CCCCCS)C(=O)Nc1ccccc1 | 1900 | 72 | 74 | 14 | 24 | 2570 | 35
2 | O=C1CC[C@H](C(=O)N[C@H](CCCCCS)C(=O)Nc2ccccc2)N1 | 171 | 138 | 101 | 40 | 102 | 8100 | 21
3 | O=C1C[C@@H](C(=O)N[C@@H](CCCCCS)C(=O)Nc2ccccc2)N1 | 68 | 8 | 8 | 9 | 10 | 61 | 2
4 | O=C1NC[C@H](c2ccccc2)[C@@H]1C(=O)N[C@@H](CCCCCS)C(=O)Nc1ccccc1 | 168 | 9 | 32 | 14 | 13 | 310 | 4
5 | CN1C(=O)CC[C@@H]1C(=O)N[C@@H](CCCCCS)C(=O)Nc1ccccc1 | 103 | 49 | 58 | 116 | 67 | 545 | 5
6 | Cc1cccc(CCNC(=O)[C@H](CCCCCS)NC(=O)[C@@H]2CCCC(=O)N2)c1 | 601 | 122 | 92 | 81 | 82 | 17 | 15
7 | O=C(CCCCCCS)NCc1ccc(C(F)(F)F)cc1 | 19400 | 2710 | 5960 | 6290 | 2070 | 373 | 5300
8 | O=C1CC[C@H](C(=O)N[C@@H](CCCCCS)C(=O)Nc2cccc(C(F)(F)F)c2)N1 | 12 | 11 | 5 | 7 | 44 | 316 | 5
9 | Cc1cccc(NC(=O)[C@H](CCCCCS)NC(=O)[C@@H]2CCC(=O)N2)c1 | 13 | 4 | 5 | 5 | 62 | 106 | 1
10 | O=C1CCC[C@@H](C(=O)N[C@@H](CCCCCS)C(=O)NCc2ccc(C(F)(F)F)cc2)N1 | 1770 | 475 | 386 | 310 | 140 | 23 | 139
11 | O=C(CCCCCCS)NC1CCCC1 | 6640 | 897 | 865 | 1170 | 776 | 2330 | 87
12 | Cc1cccc(NC(=O)[C@H](CCCCCS)NC(=O)[C@@H]2CCCC(=O)N2)c1 | 15 | 1 | 2 | 1 | 1 | 135 | 1
13 | O=C1CCC[C@@H](C(=O)N[C@@H](CCCCCS)C(=O)NCc2cccc(OCc3ccccc3)c2)N1 | 2540 | 495 | 504 | 658 | 293 | 9 | 83
14 | Cc1ccc(NC(=O)[C@H](CCCCCS)NC(=O)[C@@H]2CCCC(=O)N2)cc1 | 60 | 3 | 8 | 4 | 3 | 360 | 2
15 | CN1C(=O)CCC[C@H]1C(=O)N[C@@H](CCCCCS)C(=O)Nc1ccccc1 | 70 | 7 | 11 | 6 | 5 | 202 | 3
16 | O=C(CCCCCCS)NCc1cccc(OCc2ccccc2)c1 | 14000 | 2950 | 3160 | 2990 | 1840 | 904 | 1770
17 | O=C1NCCC[C@H]1C(=O)N[C@@H](CCCCCS)C(=O)Nc1ccccc1 | 28 | 3 | 7 | 9 | 9 | 62 | 1
18 | O=C1CCC[C@@H](C(=O)N[C@@H](CCCCCS)C(=O)NC2CCCC2)N1 | 454 | 98 | 160 | 189 | 89 | 450 | 6
19 | O=C1CCC[C@H](C(=O)N[C@@H](CCCCCS)C(=O)Nc2ccccc2)N1 | 34 | 6 | 10 | 32 | 10 | 107 | 5
20 | Cc1cccc(NC(=O)[C@H](CCCCCS)NC(=O)[C@H]2CCC(=O)N2C)c1 | 5 | 5 | 3 | 2 | 12 | 99 | 1
21 | Cc1cccc(NC(=O)[C@H](CCCCCS)NC(=O)[C@H]2CCC(=O)N2)c1 | 14 | 3 | 4 | 4 | 5 | 106 | 2
22 | Cc1cccc(CCNC(=O)CCCCCCS)c1 | 10700 | 2600 | 3210 | 3930 | 1870 | 246 | 2710
23 | O=C1NC[C@@H](c2ccccc2)[C@@H]1C(=O)N[C@@H](CCCCCS)C(=O)Nc1ccccc1 | 37 | 2 | 7 | 5 | 4 | 40 | 4

From ChEMBL document CHEMBL3352570, “ST7612AA1, a thioacetate-ω(γ-lactam carboxamide) derivative selected from a novel generation of oral HDAC inhibitors” (J Med Chem, 2014)
